Measurements as given in patent US20140073700A1, “[…] ACID DERIVATIVES AND METHODS OF USE THEREOF” (AbbVie Inc., priority 2012, published 2014).

System: IFNγ-Induced NO Production in RAW 264.7 cells
Assay: Nitric Oxide Suppression Assay (suppression of IFNγ-induced NO production)
Type: cell-based
Conditions: RAW264.7; RAW 264.7 mouse macrophage cells, 20 ng/mL interferon gamma, Griess detection; single curve fit to mean data of n=2-3
Experimental: RAW 264.7, a mouse macrophage cell line, was obtained from American Type Culture Collection (Manassas Va.) and maintained in the log phase of growth in Dulbecco's Modified Eagle's Medium (DMEM), 10% heat inactivated fetal calf serum and 100 units/mL antibiotic-antimycotic (AA). Cells were cultured and maintained in a humidified incubator at 37° C. under 5% CO2 and 95% air. Cells were sub-cultured every 3 days by scraping and were not used beyond passage 20. All cell culture supplies were obtained from Life Technologies (Grand Island, N.Y.).
RAW 264.7 cells were plated 1 day in advance of experiment at a concentration of 80,000 cells/well onto CellBIND® 96 well plates (Corning, N.Y.) in a total volume of 100 μL. The next day, pre-treat cells with compounds (from 3 μM to 0.3 nM serially diluted in a 10 point curve) from a 10× stock by adding 10 μL per well in complete DMEM media containing 10% fetal calf serum. The plates were centrifuged for 3 minutes at 400×g at room temperature followed by 2 hour incubation at 37° C. The cells were then incubated overnight at 37° C. with 10 μL of the insult, interferon gamma (R&D Systems, Minneapolis, Minn.), from a 10× stock for a final concentration of 20 ng/mL. The plates were centrifuged for 3 minutes at 400×g at room temperature followed by 18 hour incubation at 37° C. The following day, transfer 50 μL cell culture supernatant from each well into a clear bottom 96 well plate and follow the instructions from Promega's Griess Detection Kit #G2930 (Madison, Wis.) which involves the addition of 50 μL of the provided sulfanilamide solution for a 5-10 minute incubation at room temperature. Next add 50 μL of the provided N-1-napthylethylenediamine dihydrochloride (NED) solution for a 5-10 minute incubation at room temperature and protected from light. If any air bubbles were introduced into the well, the plates need to be centrifuged for 5 minutes at 400×g at room temperature to avoid interference with absorbance readings. The plates were read for absorbance within 30 minutes with a filter between 520 nm and 550 nm.
For the ability of compounds to suppress the increase in nitric oxide release, the percent maximal intensity of nitric oxide detected in each well was normalized to that induced by the peak value for 20 ng/mL of interferon gamma alone and plotted against the compound concentration to calculate IC50 values and to control for plate-to-plate variability. Concentration-response data were analyzed using GraphPad Prism (San Diego, Calif.); the IC50 values were derived from a single curve fit to the mean data of n=2-3, in duplicates.
All compounds were dissolved in dimethyl sulfoxide at 10 mM stock solutions and tested at a concentration that the dimethyl sulfoxide levels never exceeded 1%.

First: CC1(C)C(=O)C(C#N)=C[C@]2(C)C3=CC(=O)[C@]4(O)[C@@H]5C[C@@](C)(C(=O)NCc6cccnn6)CC[C@]5(C)CC[C@@]4(C)[C@]3(C)CC[C@@H]12 [Example 8, (2S,4aS,6aS,6bR,8aR,12aS,14aS,14bR)-11-cyano-14a-hydroxy-2,4a,6a,6b,9,9,12a-heptamethyl-10,14-dioxo-N-(pyridazin-3-ylmethyl)-1,2,3,4,4a,5,6,6a,6b,7,8,8a,9,10,12a,14,14a,14b-octadecahydropicene-2-carboxamide]
Second: CC1(C)C(=O)C(C#N)=C[C@]2(C)C3=CC(=O)[C@]4(O)[C@@H]5C[C@@](C)(C(=O)NCc6ccnnc6)CC[C@]5(C)CC[C@@]4(C)[C@]3(C)CC[C@@H]12 [Example 5, (2S,4aS,6aS,6bR,8aR,12aS,14aS,14bR)-11-cyano-14a-hydroxy-2,4a,6a,6b,9,9,12a-heptamethyl-10,14-dioxo-N-(pyridazin-4-ylmethyl)-1,2,3,4,4a,5,6,6a,6b,7,8,8a,9,10,12a,14,14a,14b-octadecahydropicene-2-carboxamide]
The IC50 of the first is 1.8-fold lower: 27.9 nM for the first, 50 nM for the second.

`CC1(C)C(=O)C(C#N)=C[C@]2(C)C3=CC(=O)[C@]4(O)[C@@H]5C[C@@](C)(C(=O)NCCN6CCOCC6)CC[C@]5(C)CC[C@@]4(C)[C@]3(C)CC[C@@H]12` [Example 10, (2S,4aS,6aS,6bR,8aR,12aS,14aS,14bR)-11-cyano-14a-hydroxy-2,4a,6a,6b,9,9,12a-heptamethyl-N-[2-(morpholin-4-yl)ethyl]-10,14-dioxo-1,2,3,4,4a,5,6,6a,6b,7,8,8a,9,10,12a,14,14a,14b-octadecahydropicene-2-carboxamide] and `CC1(C)C(=O)C(C#N)=C[C@]2(C)C3=CC(=O)[C@]4(O)[C@@H]5C[C@@](C)(C(=O)NC6CCOCC6)CC[C@]5(C)CC[C@@]4(C)[C@]3(C)CC[C@@H]12` [Example 18, (2S,4aS,6aS,6bR,8aR,12aS,14aS,14bR)-11-cyano-14a-hydroxy-2,4a,6a,6b,9,9,12a-heptamethyl-10,14-dioxo-N-(tetrahydro-2H-pyran-4-yl)-1,2,3,4,4a,5,6,6a,6b,7,8,8a,9,10,12a,14,14a,14b-octadecahydropicene-2-carboxamide] are within 1.5-fold of each other in IC50: 23.9 nM for the first, 17.1 nM for the second.

`CC1(C)C(=O)C(C#N)=C[C@]2(C)C3=CC(=O)[C@]4(O)[C@@H]5C[C@@](C)(C(=O)NCc6cnco6)CC[C@]5(C)CC[C@@]4(C)[C@]3(C)CC[C@@H]12` [Example 3, (2S,4aS,6aS,6bR,8aR,12aS,14aS,14bR)-11-cyano-14a-hydroxy-2,4a,6a,6b,9,9,12a-heptamethyl-N-(1,3-oxazol-5-ylmethyl)-10,14-dioxo-1,2,3,4,4a,5,6,6a,6b,7,8,8a,9,10,12a,14,14a,14b-octadecahydropicene-2-carboxamide] and `CC1(C)C(=O)C(C#N)=C[C@]2(C)C3=CC(=O)[C@]4(O)[C@@H]5C[C@@](C)(C(=O)NCc6ccno6)CC[C@]5(C)CC[C@@]4(C)[C@]3(C)CC[C@@H]12` [Example 30, (2S,4aS,6aS,6bR,8aR,12aS,14aS,14bR)-11-cyano-14a-hydroxy-2,4a,6a,6b,9,9,12a-heptamethyl-N-(1,2-oxazol-5-ylmethyl)-10,14-dioxo-1,2,3,4,4a,5,6,6a,6b,7,8,8a,9,10,12a,14,14a,14b-octadecahydropicene-2-carboxamide] are within 1.5-fold of each other in IC50: 14.6 nM for the first, 12.4 nM for the second.

Compared with `COC(=O)[C@@]1(C)CC[C@]2(C)CC[C@]3(C)[C@H](C(=O)C=C4[C@@]5(C)C=C(C#N)C(=O)C(C)(C)[C@@H]5CC[C@]43C)[C@@H]2C1` [Example 2, (2S,4aS,6aR,6bS,8aR,12aS,14aR,14bS)-methyl 11-cyano-2,4a,6a,6b,9,9,12a-heptamethyl-10,14-dioxo-1,2,3,4,4a,5,6,6a,6b,7,8,8a,9,10,12a,14,14a,14b-octadecahydropicene-2-carboxylate], `COCC(COC)NC(=O)[C@@]1(C)CC[C@]2(C)CC[C@]3(C)[C@H](C(=O)C=C4[C@@]5(C)C=C(C#N)C(=O)C(C)(C)[C@@H]5CC[C@]43C)[C@@H]2C1` [Example 37, (2S,4aS,6aR,6bS,8aR,12aS,14aR,14bS)-11-cyano-N-(1,3-dimethoxypropan-2-yl)-2,4a,6a,6b,9,9,12a-heptamethyl-10,14-dioxo-1,2,3,4,4a,5,6,6a,6b,7,8,8a,9,10,12a,14,14a,14b-octadecahydropicene-2-carboxamide] is 13-fold lower in IC50: 201 nM for the first, 15.8 nM for the second.

Compared with `CCCN(C)C(=O)[C@@]1(C)CC[C@]2(C)CC[C@@]3(C)[C@]4(C)CC[C@H]5C(C)(C)C(=O)C(C#N)=C[C@]5(C)C4=CC(=O)[C@]3(O)[C@@H]2C1` [Example 6, (2S,4aS,6aS,6bR,8aR,12aS,14aS,14bR)-11-cyano-14a-hydroxy-N,2,4a,6a,6b,9,9,12a-octamethyl-10,14-dioxo-N-propyl-1,2,3,4,4a,5,6,6a,6b,7,8,8a,9,10,12a,14,14a,14b-octadecahydropicene-2-carboxamide], `CCC(O)CNC(=O)[C@@]1(C)CC[C@]2(C)CC[C@@]3(C)[C@]4(C)CC[C@H]5C(C)(C)C(=O)C(C#N)=C[C@]5(C)C4=CC(=O)[C@]3(O)[C@@H]2C1` (stereo partly drawn) [Example 14, (2S,4aS,6aS,6bR,8aR,12aS,14aS,14bR)-11-cyano-14a-hydroxy-N-(2-hydroxybutyl)-2,4a,6a,6b,9,9,12a-heptamethyl-10,14-dioxo-1,2,3,4,4a,5,6,6a,6b,7,8,8a,9,10,12a,14,14a,14b-octadecahydropicene-2-carboxamide] is 1.5-fold higher in IC50: 35.5 nM for the first, 53.7 nM for the second.

Compared with `CC(O)CNC(=O)[C@@]1(C)CC[C@]2(C)CC[C@@]3(C)[C@]4(C)CC[C@H]5C(C)(C)C(=O)C(C#N)=C[C@]5(C)C4=CC(=O)[C@]3(O)[C@@H]2C1` (stereo partly drawn) [Example 19, (2S,4aS,6aS,6bR,8aR,12aS,14aS,14bR)-11-cyano-14a-hydroxy-N-(2-hydroxypropyl)-2,4a,6a,6b,9,9,12a-heptamethyl-10,14-dioxo-1,2,3,4,4a,5,6,6a,6b,7,8,8a,9,10,12a,14,14a,14b-octadecahydropicene-2-carboxamide], `Cn1cc(CNC(=O)[C@@]2(C)CC[C@]3(C)CC[C@@]4(C)[C@]5(C)CC[C@H]6C(C)(C)C(=O)C(C#N)=C[C@]6(C)C5=CC(=O)[C@]4(O)[C@@H]3C2)cn1` [Example 9, (2S,4aS,6aS,6bR,8aR,12aS,14aS,14bR)-11-cyano-14a-hydroxy-2,4a,6a,6b,9,9,12a-heptamethyl-N-[(1-methyl-1H-pyrazol-4-yl)methyl]-10,14-dioxo-1,2,3,4,4a,5,6,6a,6b,7,8,8a,9,10,12a,14,14a,14b-octadecahydropicene-2-carboxamide] is 5.3-fold lower in IC50: 67.9 nM for the first, 12.8 nM for the second. The second is the more potent here.

Going from `Cn1cc(CNC(=O)[C@@]2(C)CC[C@]3(C)CC[C@]4(C)[C@H](C(=O)C=C5[C@@]6(C)C=C(C#N)C(=O)C(C)(C)[C@@H]6CC[C@]54C)[C@@H]3C2)cn1` [Example 38, (2S,4aS,6aR,6bS,8aR,12aS,14aR,14bS)-11-cyano-2,4a,6a,6b,9,9,12a-heptamethyl-N-[(1-methyl-1H-pyrazol-4-yl)methyl]-10,14-dioxo-1,2,3,4,4a,5,6,6a,6b,7,8,8a,9,10,12a,14,14a,14b-octadecahydropicene-2-carboxamide] to `CC1(C)C(=O)C(C#N)=C[C@]2(C)C3=CC(=O)[C@@H]4[C@@H]5C[C@@](C)(C(=O)NC6CCCCC6)CC[C@]5(C)CC[C@@]4(C)[C@]3(C)CC[C@@H]12` [Example 36, (2S,4aS,6aR,6bS,8aR,12aS,14aR,14bS)-11-cyano-N-cyclohexyl-2,4a,6a,6b,9,9,12a-heptamethyl-10,14-dioxo-1,2,3,4,4a,5,6,6a,6b,7,8,8a,9,10,12a,14,14a,14b-octadecahydropicene-2-carboxamide], the IC50 rises from 6.8 nM to 142 nM (21-fold).

Going from `Cc1ccccc1CNC(=O)[C@@]1(C)CC[C@]2(C)CC[C@@]3(C)[C@]4(C)CC[C@H]5C(C)(C)C(=O)C(C#N)=C[C@]5(C)C4=CC(=O)[C@]3(O)[C@@H]2C1` [Example 11, (2S,4aS,6aS,6bR,8aR,12aS,14aS,14bR)-11-cyano-14a-hydroxy-2,4a,6a,6b,9,9,12a-heptamethyl-N-(2-methylbenzyl)-10,14-dioxo-1,2,3,4,4a,5,6,6a,6b,7,8,8a,9,10,12a,14,14a,14b-octadecahydropicene-2-carboxamide] to `Cn1ccc(CNC(=O)[C@@]2(C)CC[C@]3(C)CC[C@@]4(C)[C@]5(C)CC[C@H]6C(C)(C)C(=O)C(C#N)=C[C@]6(C)C5=CC(=O)[C@]4(O)[C@@H]3C2)n1` [Example 12, (2S,4aS,6aS,6bR,8aR,12aS,14aS,14bR)-11-cyano-14a-hydroxy-2,4a,6a,6b,9,9,12a-heptamethyl-N-[(1-methyl-1H-pyrazol-3-yl)methyl]-10,14-dioxo-1,2,3,4,4a,5,6,6a,6b,7,8,8a,9,10,12a,14,14a,14b-octadecahydropicene-2-carboxamide], the IC50 falls from 140 nM to 14.1 nM (9.9-fold).
